Results as given in publication PMC11822712, “Improving the Activity and Selectivity of a Scorpion-Derived Peptide, A3a, against Acinetobacter baumannii through Rational Design” (ACS Omega, 2025).
Values after ≈ are worked out from the molar mass of the structure shown. Read-outs that look alike come from different tables or passages of the source. Positions of bridges follow the written chain, without caps; N, C: chain ends. Non-standard residues stand in square brackets, D forms with d. Residues, ends and D or L forms follow the SMILES beside them. No end group written: not given here. *: point of attachment. X1 = CC[C@H](C)CCCCC(=O)*; Dab = NCC[C@H](N)C(=O)O

Tests used:
E. cloacae ATCC 700323 = assay: microbe, parasite or virus in culture
Procedure: Antimicrobial activity was determined against a panel of ESKAPE pathogens. […] Bacterial colonies were picked and cultured in cation-adjusted MHB at 37 °C with 180 rpm shaking. Cultures were back-diluted to reach a starting OD600 of 0.1 and then diluted 100-fold to approximately 1 × 10^6 CFU/mL.

[1] = system: K. pneumoniae ATCC BAA-1705; assay: microbe, parasite or virus in culture; assay type: cell-based, Klebsiella pneumoniae
[2] = system: S. aureus (MSSA) ATCC 25923; assay: microbe, parasite or virus in culture; assay type: cell-based, Staphylococcus aureus; conditions: cation-adjusted MHB, OD600
E. coli ATCC 25922 = assay: microbe, parasite or virus in culture; assay type: cell-based, Escherichia coli; conditions: cation-adjusted MHB, OD600
A. baumannii ATCC 19606 [3] = assay: microbe, parasite or virus in culture; assay type: cell-based, Acinetobacter baumannii; conditions: cation-adjusted MHB, OD600
P. aeruginosa ATCC 27853 = assay: microbe, parasite or virus in culture; assay type: cell-based, Pseudomonas aeruginosa; conditions: cation-adjusted MHB, OD600
erythrocytes = conditions: 40 μM ref 13; cited from earlier work
HaCat cell = conditions: read-out: IC50 of HaCat cell viability; cited from earlier work
Procedure: Previously, we amidated the C-terminus of A3 to improve its activity against Gram-negative bacteria.[14] A3, the amidated analogue A3a, and the parent peptide AamAP1 were evaluated for antibacterial activity against a panel of ESKAPE pathogens.

A. baumannii ATCC 19606 [4] = assay: Killing kinetics (CFU, Miles Misra method); assay type: cell-based, Acinetobacter baumannii; conditions: 1×, 4× and 8× MIC, A3a tested at the same concentration as A3a[R7K] (Figure 3 legend)
Procedure: Colistin (8 μg/mL) was used as a positive control. […] Following exposure, 10 μL was used from the individual wells to determine the CFUs with the Miles Misra method.[57] The limit of detection for this method was 1000 CFUs. This was done at 30 min and 2, 6, and 24 h.

A. baumannii ATCC 19606 [5] = assay: Membrane permeabilization, SYTOX Green assay; assay type: cell-based, Acinetobacter baumannii; conditions: SYTOX Green fluorescence, 1× MIC, 0.5 and 2 h exposure; melittin 8 μM positive control; three biological repeats
Procedure: For membrane permeabilization studies, A. baumannii ATCC 19606 cells were evaluated after exposure to each peptide by measuring fluorescence. The SYTOX Green assay was undertaken according to Zeng et al.,[58] with some modifications. […] Melittin (8 μM) was used as the positive control. The fluorescence was measured every 2 min at excitation and emission wavelengths of 485 and 535 nm, respectively (Spectramax, Multimode detection platform, Molecular Devices, Austria).

[6] = cation-adjusted MHB, approx. 1 × 10^6 CFU/mL added 1:1, 20 h, OD600, MIC = lowest concentration with growth <0.1 above background, > = no activity at highest concentration tested
[7] = approx. 1 × 10^6 CFU/mL added 1:1, 20 h, MIC = lowest concentration with growth <0.1 above background, > = no activity at highest concentration tested
[8] = same test as μg/mL value, cation-adjusted MHB, 20 h, OD600
[9] = same test as μg/mL value, 20 h, read-out: MIC (value in brackets)

CNC(C)C1CCC(N)C(OC2C(N)CC(N)C(OC3OCC(C)(O)C(NC)C3O)C2O)O1 (stereo not drawn) [gentamicin]
MIC (E. cloacae ATCC 700323; Enterobacter cloacae, ATCC700323, 20 h, read-out: MIC (value in brackets)): 4 µM | MIC (E. cloacae ATCC 700323; cation-adjusted MHB, approx. 1 × 10^6 CFU/mL added 1:1, 20 h, OD600, […], > = no activity at highest concentration tested): 2 µg/mL | MIC ([1]; Klebsiella pneumoniae, ATCCBAA1705, 20 h, read-out: MIC (value in brackets)): 4 µM | MIC [1, 6]: 2 µg/mL | MIC ([2]; Staphylococcus aureus, same test as μg/mL value, 20 h, read-out: MIC (value in brackets)): 1 µM | MIC [2, 7]: 0.5 µg/mL | MIC (E. coli ATCC 25922; Escherichia coli, ATCC25922, same test as μg/mL value, 20 h, read-out: MIC (value in brackets)): 1 µM | MIC (E. coli ATCC 25922; [7]): 0.5 µg/mL | MIC (A. baumannii ATCC 19606 [3]; Acinetobacter baumannii, ATCC19606, same test as μg/mL value, 20 h, read-out: MIC (value in brackets)): 67 µM | MIC (A. baumannii ATCC 19606 [3]; [7]): 32 µg/mL | MIC (P. aeruginosa ATCC 27853; Pseudomonas aeruginosa, ATCC27853, same test as μg/mL value, 20 h, read-out: MIC (value in brackets)): 8 µM | MIC (P. aeruginosa ATCC 27853; [7]): 4 µg/mL

CC[C@H](C)CCCCC(=O)N[C@@H](CCN)C(=O)N[C@H](C(=O)N[C@@H](CCN)C(=O)N[C@H]1CCNC(=O)[C@H]([C@@H](C)O)NC(=O)[C@H](CCN)NC(=O)[C@H](CCN)NC(=O)[C@H](CC(C)C)NC(=O)[C@@H](Cc2ccccc2)NC(=O)[C@H](CCN)NC1=O)[C@@H](C)O [polymyxin B] (X1-[Dab]T[Dab][Dab][Dab][dF]L[Dab][Dab]T; lactam 4-C (inferred); N-terminus assumed)
MIC (E. cloacae ATCC 700323; [6]): 0.25 µg/mL | MIC (value in brackets) (E. cloacae ATCC 700323; [8]): 0.19 µM (≈ 0.229 µg/mL) | MIC [1, 6]: 0.5 µg/mL | MIC (value in brackets) [1, 8]: 0.4 µM (≈ 0.481 µg/mL) | MIC [2, 7]: >32 µg/mL | MIC (E. coli ATCC 25922; [7]): 0.5 µg/mL | MIC (E. coli ATCC 25922; [9]): 0.4 µM | MIC (A. baumannii ATCC 19606 [3]; [7]): 1 µg/mL | MIC (A. baumannii ATCC 19606 [3]; [9]): 0.76 µM | MIC (P. aeruginosa ATCC 27853; [7]): 2 µg/mL | MIC (P. aeruginosa ATCC 27853; [9]): 1.5 µM

FLFSLIRKAIGGLISAFK [A3, AMP derived from AamAP1 by substituting proline 7 with arginine and histidine 8 with lysine]
hemolysis (erythrocytes): 36.1% | IC50 (HaCat cell): 59.9 µM

FLFSLRKAGGLISAFK-NH2 [A3a[I(6,10)-del]]
MIC (E. cloacae ATCC 700323; [6]): >128 µg/mL | MIC [1, 6]: >128 µg/mL | MIC [2, 7]: >128 µg/mL | MIC (E. coli ATCC 25922; [7]): >128 µg/mL | MIC (A. baumannii ATCC 19606 [3]; [7]): >128 µg/mL | MIC (P. aeruginosa ATCC 27853; [7]): >128 µg/mL

colistin
regrowth after 24 h in killing kinetics (A. baumannii ATCC 19606 [4]): regrowth at all of the concentrations tested

melittin
membrane permeabilization (A. baumannii ATCC 19606 [5]): rapid membrane permeabilization
